{
  "source": "patent US20240252581A1",
  "about": "“COMPOSITIONS AND METHODS FOR TREATING RESPIRATORY DISTRESS” (S.I.S. SHULOV INNOVATIVE SCIENCE LTD., priority 2021, published 2024)",
  "key": {"[1]": {"assay": "Oxygen saturation in mouse model of LPS-inflamed lungs (Rodent Pulse Oximeter)", "assay_type": "in vivo, Balb/C female mice", "settings": "for Oxygen saturation, group mean: mean of 10 mice; for Oxygen saturation, individual mouse: single animals", "experimental": "Evaluation of the effect of ZEP3Na administration via inhalation on oxygen saturation in a mouse model of inflamed lungs by the lipopolysaccharides (LPS) was performed. Oxygen saturation testing was performed at several time points on mice that have been anesthetized by isoflurane. A sensor was attached to the hind foot of the mice and the percentage of oxygen in the blood was measured using the Rodent Pulse Oximeter instrument (Kent Scientific).\nFollowing LPS intratracheal instillation, a marked reduction in blood oxygen saturation levels was detected. ZEP3Na was then administered by inhalation at two doses 6 h and 14 h after LPS administration and the effect of ZEP3Na on blood oxygen saturation was monitored 0, 2, 6, 12, 24 and 48 hours following ZEP3Na administration. Saturation data was analyzed by ANOVA followed by Tukey-Kramer test. Significance level was defined as ∝=0.05."}, "[2]": {"settings": "determined daily during the study", "quoted_text": "The effect of ZEP3Na administered intratracheally in a mice model of acute respiratory distress syndrome was evaluated. BALB/c mice were anaesthetized and orally intubated with a sterile plastic catheter and challenged with intratracheal instillation of 0.2 mg or 0.8 mg of LPS dissolved in 50 μL of PBS. Naïve mice (without LPS instillation) were injected with the same volume of saline to serve as controls. Six hours following LPS instillation, mice were administered intratracheally with ZEP3Na at two doses, namely 0.1 and 0.4 mg. The study was terminated 72 hours after LPS challenge to collect tissues for analysis.\nAnimal body weights were determined daily during the study."}, "[3]": {"settings": "Group 2: LPS 800 μg + ZEP3Na 10 mg by inhalation at 6 h, time point 0 h"}, "[4]": {"settings": "Group 2: LPS 800 μg + ZEP3Na 10 mg by inhalation at 6 h, time point 2 h"}, "[5]": {"settings": "Group 2: LPS 800 μg + ZEP3Na 10 mg by inhalation at 6 h, time point 6 h"}, "[6]": {"settings": "Group 2: LPS 800 μg + ZEP3Na 10 mg by inhalation at 6 h, time point 12 h"}, "[7]": {"settings": "Group 2: LPS 800 μg + ZEP3Na 10 mg by inhalation at 6 h, time point 24 h"}, "[8]": {"settings": "Group 2: LPS 800 μg + ZEP3Na 10 mg by inhalation at 6 h, time point 48 h"}, "[9]": {"settings": "Group 3: LPS 800 μg + ZEP3Na 10 mg by inhalation at 6 h + 14 h, time point 0 h"}, "[10]": {"settings": "Group 3: LPS 800 μg + ZEP3Na 10 mg by inhalation at 6 h + 14 h, time point 2 h"}, "[11]": {"settings": "Group 3: LPS 800 μg + ZEP3Na 10 mg by inhalation at 6 h + 14 h, time point 6 h"}, "[12]": {"settings": "Group 3: LPS 800 μg + ZEP3Na 10 mg by inhalation at 6 h + 14 h, time point 12 h"}, "[13]": {"settings": "Group 3: LPS 800 μg + ZEP3Na 10 mg by inhalation at 6 h + 14 h, time point 24 h"}, "[14]": {"settings": "Group 3: LPS 800 μg + ZEP3Na 10 mg by inhalation at 6 h + 14 h, time point 48 h"}, "[15]": {"settings": "Group 4: LPS 800 μg + ZEP3Na 50 mg by inhalation at 6 h, time point 0 h"}, "[16]": {"settings": "Group 4: LPS 800 μg + ZEP3Na 50 mg by inhalation at 6 h, time point 2 h"}, "[17]": {"settings": "Group 4: LPS 800 μg + ZEP3Na 50 mg by inhalation at 6 h, time point 6 h"}, "[18]": {"settings": "Group 4: LPS 800 μg + ZEP3Na 50 mg by inhalation at 6 h, time point 12 h"}, "[19]": {"settings": "Group 4: LPS 800 μg + ZEP3Na 50 mg by inhalation at 6 h, time point 24 h"}, "[20]": {"settings": "Group 4: LPS 800 μg + ZEP3Na 50 mg by inhalation at 6 h, time point 48 h"}, "[21]": {"settings": "Group 5: LPS 800 μg + ZEP3Na 50 mg by inhalation at 6 h + 14 h, time point 0 h"}, "[22]": {"settings": "Group 5: LPS 800 μg + ZEP3Na 50 mg by inhalation at 6 h + 14 h, time point 2 h"}, "[23]": {"settings": "Group 5: LPS 800 μg + ZEP3Na 50 mg by inhalation at 6 h + 14 h, time point 6 h"}, "[24]": {"settings": "Group 5: LPS 800 μg + ZEP3Na 50 mg by inhalation at 6 h + 14 h, time point 12 h"}, "[25]": {"settings": "Group 5: LPS 800 μg + ZEP3Na 50 mg by inhalation at 6 h + 14 h, time point 24 h"}, "[26]": {"settings": "Group 5: LPS 800 μg + ZEP3Na 50 mg by inhalation at 6 h + 14 h, time point 48 h"}, "[27]": {"settings": "administration by inhalation, 800 μg LPS"}},
  "note": "Where “and” joins values, the source holds several entries; their conditions need not be identical. Equal entries are not always repeated. Square brackets hold non-standard residues; d marks the D form. Peptide text beside a SMILES is read from it. * marks the point of attachment. pGlu = O=C1CC[C@@H](C(=O)O)N1; Octanoyl = CCCCCCCC(=O)*",
  "data": [
    {"smiles": "CCCCCCCC(=O)NCCCC[C@H](NC(=O)[C@H](Cc1c[nH]c2ccccc12)NC(=O)[C@H](CC(N)=O)NC(=O)[C@@H]1CCC(=O)N1)C(=O)O", "note": "[ZEP3Na, pGlu-Asn-Trp-Lys(Octanoyl)-ONa] ([pGlu]NWK(Octanoyl)-OH)", "values": [
      {"measurement": "Oxygen saturation, group mean", "setting": "[1]; [3]", "value": 97.2, "unit": "%"},
      {"measurement": "Oxygen saturation, individual mouse", "setting": "[1]; [3]", "value": "99% (4×) and 93% and 97% and 98% (2×) and 95% (2×)"},
      {"measurement": "Oxygen saturation, group mean", "setting": "[1]; [4]", "value": 70.0, "unit": "%"},
      {"measurement": "Oxygen saturation, individual mouse", "setting": "[1]; [4]", "value": "77% and 67% and 78% (2×) and 61% and 71% and 59% and 72% and 74% and 63%"},
      {"measurement": "Oxygen saturation, group mean", "setting": "[1]; [5]", "value": 86.2, "unit": "%"},
      {"measurement": "Oxygen saturation, individual mouse", "setting": "[1]; [5]", "value": "81% and 88% (2×) and 87% (2×) and 91% and 82% and 84% and 85% and 89%"},
      {"measurement": "Oxygen saturation, group mean", "setting": "[1]; [6]", "value": 93.5, "unit": "%"},
      {"measurement": "Oxygen saturation, individual mouse", "setting": "[1]; [6]", "value": "92% (2×) and 96% and 95% (2×) and 93% and 90% and 94% (3×)"},
      {"measurement": "Oxygen saturation, group mean", "setting": "[1]; [7]", "value": 89.0, "unit": "%"},
      {"measurement": "Oxygen saturation, individual mouse", "setting": "[1]; [7]", "value": "86% (2×) and 87% and 89% and 88% and 90% (2×) and 83% and 92% and 99%"},
      {"measurement": "Oxygen saturation, group mean", "setting": "[1]; [8]", "value": 92.9, "unit": "%"},
      {"measurement": "Oxygen saturation, individual mouse", "setting": "[1]; [8]", "value": "91% (5×) and 94% and 97% (3×) and 89%"},
      {"measurement": "Oxygen saturation, group mean", "setting": "[1]; [9]", "value": 96.2, "unit": "%"},
      {"measurement": "Oxygen saturation, individual mouse", "setting": "[1]; [9]", "value": "97% (2×) and 96% and 99% (2×) and 94% (2×) and 93% and 95% and 98%"},
      {"measurement": "Oxygen saturation, group mean", "setting": "[1]; [10]", "value": 71.1, "unit": "%"},
      {"measurement": "Oxygen saturation, individual mouse", "setting": "[1]; [10]", "value": "70% and 68% and 71% (2×) and 80% and 73% and 64% and 75% and 62% and 77%"},
      {"measurement": "Oxygen saturation, group mean", "setting": "[1]; [11]", "value": 87.1, "unit": "%"},
      {"measurement": "Oxygen saturation, individual mouse", "setting": "[1]; [11]", "value": "86% (2×) and 88% (2×) and 89% (2×) and 92% and 81% and 82% and 90%"},
      {"measurement": "Oxygen saturation, group mean", "setting": "[1]; [12]", "value": 92.5, "unit": "%"},
      {"measurement": "Oxygen saturation, individual mouse", "setting": "[1]; [12]", "value": "92% (2×) and 90% (2×) and 94% and 97% and 95% and 88% and 91% and 96%"},
      {"measurement": "Oxygen saturation, group mean", "setting": "[1]; [13]", "value": 92.1, "unit": "%"},
      {"measurement": "Oxygen saturation, individual mouse", "setting": "[1]; [13]", "value": "96% (2×) and 94% and 88% and 86% and 93% (3×) and 92% and 90%"},
      {"measurement": "Oxygen saturation, group mean", "setting": "[1]; [14]", "value": 93.0, "unit": "%"},
      {"measurement": "Oxygen saturation, individual mouse", "setting": "[1]; [14]", "value": "91% (4×) and 92% (2×) and 97% (2×) and 94% (2×)"},
      {"measurement": "Oxygen saturation, group mean", "setting": "[1]; [15]", "value": 97.2, "unit": "%"},
      {"measurement": "Oxygen saturation, individual mouse", "setting": "[1]; [15]", "value": "95% (3×) and 97% (3×) and 99% (4×)"},
      {"measurement": "Oxygen saturation, group mean", "setting": "[1]; [16]", "value": 72.7, "unit": "%"},
      {"measurement": "Oxygen saturation, individual mouse", "setting": "[1]; [16]", "value": "69% and 81% and 72% (2×) and 73% and 79% (2×) and 65% and 66% and 71%"},
      {"measurement": "Oxygen saturation, group mean", "setting": "[1]; [17]", "value": 86.7, "unit": "%"},
      {"measurement": "Oxygen saturation, individual mouse", "setting": "[1]; [17]", "value": "86% (3×) and 90% and 88% (2×) and 87% (2×) and 85% and 84%"},
      {"measurement": "Oxygen saturation, group mean", "setting": "[1]; [18]", "value": 94.5, "unit": "%"},
      {"measurement": "Oxygen saturation, individual mouse", "setting": "[1]; [18]", "value": "93% and 89% and 94% (3×) and 95% and 96% (3×) and 98%"},
      {"measurement": "Oxygen saturation, group mean", "setting": "[1]; [19]", "value": 94.0, "unit": "%"},
      {"measurement": "Oxygen saturation, individual mouse", "setting": "[1]; [19]", "value": "93% (2×) and 94% and 95% (2×) and 90% and 99% and 92% (2×) and 97%"},
      {"measurement": "Oxygen saturation, group mean", "setting": "[1]; [20]", "value": 97.0, "unit": "%"},
      {"measurement": "Oxygen saturation, individual mouse", "setting": "[1]; [20]", "value": "93% and 95% and 98% (5×) and 99% and 97% and 96%"},
      {"measurement": "Oxygen saturation, group mean", "setting": "[1]; [21]", "value": 96.6, "unit": "%"},
      {"measurement": "Oxygen saturation, individual mouse", "setting": "[1]; [21]", "value": "97% (3×) and 94% (2×) and 96% and 99% (2×) and 98% and 95%"},
      {"measurement": "Oxygen saturation, group mean", "setting": "[1]; [22]", "value": 71.8, "unit": "%"},
      {"measurement": "Oxygen saturation, individual mouse", "setting": "[1]; [22]", "value": "63% and 71% and 69% and 92% and 73% and 75% and 72% and 76% and 66% and 61%"},
      {"measurement": "Oxygen saturation, group mean", "setting": "[1]; [23]", "value": 86.8, "unit": "%"},
      {"measurement": "Oxygen saturation, individual mouse", "setting": "[1]; [23]", "value": "88% (2×) and 90% and 84% and 89% and 86% (2×) and 85% (2×) and 87%"},
      {"measurement": "Oxygen saturation, group mean", "setting": "[1]; [24]", "value": 94.0, "unit": "%"},
      {"measurement": "Oxygen saturation, individual mouse", "setting": "[1]; [24]", "value": "92% and 94% (3×) and 90% and 93% and 95% (2×) and 96% and 97%"},
      {"measurement": "Oxygen saturation, group mean", "setting": "[1]; [25]", "value": 93.8, "unit": "%"},
      {"measurement": "Oxygen saturation, individual mouse", "setting": "[1]; [25]", "value": "90% and 91% (3×) and 93% (2×) and 98% (2×) and 99% and 94%"},
      {"measurement": "Oxygen saturation, group mean", "setting": "[1]; [26]", "value": 97.1, "unit": "%"},
      {"measurement": "Oxygen saturation, individual mouse", "setting": "[1]; [26]", "value": "99% (3×) and 97% (3×) and 91% and 98% (2×) and 96%"},
      {"measurement": "elevation in oxygen saturation levels as compared to LPS with no treatment", "setting": "[1]; [27]", "value": "≤ 20", "unit": "%"},
      {"measurement": "oxygen saturation levels that have been reduced by LPS", "setting": "[1]; [27]", "value": "significantly increased"},
      {"measurement": "time following treatment at which increase in oxygen saturation is statistically significant", "setting": "[1]; administration by inhalation, LPS model", "value": 12, "unit": "h"},
      {"measurement": "animal weight", "setting": "[1]; throughout the experiment", "value": "substantially constant"},
      {"measurement": "body weight", "setting": "[2]", "value": "No major changes"}
    ]}
  ]
}
